From patent US11820984B2, “Double-helix oligonucleotide construct comprising double-stranded miRNA and use thereof” (BIONEER CORPORATION, priority 2018, dated 2023)

Columns and labels:
EGFR mRNA = experiment: RT-qPCR relative expression level of EGFR mRNA; assay type: cell-based; conditions: PC9, PC9/ER, H1975 and H596, versus negative control
[1] = system: PC9 and PC9/ER cell lines; experiment: apoptosis analysis by annexin V / propidium iodide flow cytometry (FACS); assay type: cell-based; conditions: RNAiMax transfection, 48 hours, versus miRNA control
Description: After 48 hours of additional culture, the cells were treated with FITC fluorescent dye-labeled annexin V and propidium iodide (PI) and analyzed by flow cytometry (FACS).

3′ UTR of EGFR mRNA = experiment: luciferase assay with EGFR 3′ UTR firefly luciferase vector in HEK cells; assay type: cell-based, human
Text: Since miRNA inhibits protein production from target mRNA by binding to the 3′ UTR (untranslated region) of the target mRNA, luciferase assay is generally used as a method of directly measuring the relationship between miRNA and the target mRNA. Using the TargetScan software, a 3′ UTR sequence comprising a miRNA binding sequence was predicted. The predicted 3′ UTR sequence was cloned into the 3′ UTR of firefly luciferase by a gene cloning technique. The constructed vector and the miRNA of interest were co-transfected into human embryonic kidney (HEK) cells, and the luciferase expression level of the vector was measured. […] At this time, in order to correct the transfection efficiency, Renilla luciferase was also transfected to correct the measurement value. After co-transfection of the miRNA, firefly luciferase and Renilla luciferase, the cells were cultured for 48 hours, and then the luciferase activity was measured using a luminometer.

[2] = system: proteins involved in the EGFR signaling pathway; experiment: Western blot analysis of proteins involved in the EGFR signaling pathway; assay type: cell-based
Text: It is known that the EGFR signaling pathway in the lung cancer cell lines used in the Examples is activated due to the presence of mutation in the EGFR protein and activation of the EGFR signaling pathway plays an important role in the survival of the cell lines.

[3] = system: lung cancer cell lines H2009, H596, H1650, PC9, PC9/GR, H1975, HCC827, and A549; experiment: miRNA library screening, inhibition of proliferation (CellTiter-Glo); assay type: cell-based; conditions: 40 nM miRNA with RNAiMax, 96 hours, eight lung cancer cell lines
Description: Using the same miRNA library used in Korean Patent Application No. 10-2016-0022462, an experiment was performed to screen miRNAs that induce apoptosis of lung cancer cell lines. The lung cancer cell lines used in the experiment are as follows: H2009, H596, H1650, PC9, PC9/GR, H1975, HCC827, and A549 (purchased from the ATCC or the Korean Cell Line Bank). Each of the cell lines was seeded into a 96-well plate and treated with 40 nM of each miRNA together with the transfection reagent RNAiMax (Invitrogen), and the miRNA was delivered into the cells. After 96 hours of additional culture, the relative growth of the cells was measured using CellTiter-Glo reagent (Promega) (FIGS. 1 to 4).

[4] = system: PC9/GR, PC9/ER, H1975, H596 and H1650 cell lines having resistance to erlotinib; experiment: relative cell viability (CellTiter-Glo), erlotinib-resistant lines; assay type: cell-based; conditions: cell lines having resistance to erlotinib (EGFR T790M etc.), 96 hours
Description: (§1) After 96 hours of additional culture, the relative viability of the cells was measured. […] On the other hand, PC9/GR and PC9/ER contain delE764-A750 mutation, like PC9, and have T790M mutation. […] H1975 has L858R and T790M mutations, H596 has overexpressed EGFR, and H1650 has delE764-A750 mutation. […] The cell viability was measured using the CellTiter-Glo used in Example 1.

PC9 cell line = experiment: relative cell viability (CellTiter-Glo), erlotinib-sensitive line; assay type: cell-based; conditions: PC9, 96 hours
Description: as §1, with “measured. These cell lines were used because they have genetic characteristics and drug resistance as follows.” for “measured.”

[5] = Western blot, versus control group

Compound | expression of EGFR mRNA (EGFR mRNA) | number of dead cells (annexin V/PI) [1] | luciferase activity, EGFR 3′UTR vector (3′ UTR of EGFR mRNA; HEK cells, co-transfection, 48 hours, Renilla-corrected) | luciferase activity, EGFR 3′UTR with mutations in target regions (3′ UTR of EGFR mRNA; mutations EGFR 3′UTR 250-256, 2288-2295, and 3476-3482 nt) | inhibition of pEGFR and ERK phosphorylation, apoptosis (PARP) by Western blot ([2]; PC9 cell line) | amount of ERK, an activated form of the ERK protein ([2]; Western blot) | expression level of phosphorylated EGFR [2, 5] | expression level of the EGFR protein [2, 5] | inhibition of pEGFR and ERK phosphorylation, apoptosis (PARP) by Western blot ([2]; other cell lines having erlotinib resistance due to EGFR T790M mutation) | inhibition of cell proliferation (relative growth of the cells) [3] | concentration at which apoptosis of the cells could be induced [4] [µM] | concentration at which cells could be killed (PC9 cell line) [µM]
miR-544a: double-stranded miRNA consisting of SEQ ID NO: 1 (5'-AUUCUGCAUUUUUAGCAAGUUC-3') and SEQ ID NO: 2 (5'-ACUUGCUAAAAAUGCAGAAUUU-3') (listed as RNA, chemistry not given here) | decreased in all the cell lines used in the experiment | significantly higher than that in the cell line treated with the miRNA control | each target mRNA was controlled directly by the miRNA | the expression inhibition phenomenon by the miRNA disappeared | inhibit activated EGFR (pEGFR) and inhibit phosphorylation of the downstream signaling factor ERK | decreased | also decreased compared to that in the control group | significantly decreased compared to that in the control group | only miR-544a exhibits this effect | excellent effect against the cell lines used |  | 
C#Cc1cccc(Nc2ncnc3cc(OCCOC)c(OCCOC)cc23)c1 [erlotinib] |  |  |  |  |  |  |  |  |  |  | 10 | 0.1
